Measurements from patent US9034336B2, “Immunomodulators and immunomodulator conjugates” (Regents of the University of Minnesota, priority 2011, dated 2015).

Molecular target: T1, human TLR8 (Homo sapiens, UniProt Q9NR97)
T1 construct: host or cells: HEK (HEK293) cells with NF-kB-responsive SEAP reporter
T1 sequence (Q9NR97 27-1041): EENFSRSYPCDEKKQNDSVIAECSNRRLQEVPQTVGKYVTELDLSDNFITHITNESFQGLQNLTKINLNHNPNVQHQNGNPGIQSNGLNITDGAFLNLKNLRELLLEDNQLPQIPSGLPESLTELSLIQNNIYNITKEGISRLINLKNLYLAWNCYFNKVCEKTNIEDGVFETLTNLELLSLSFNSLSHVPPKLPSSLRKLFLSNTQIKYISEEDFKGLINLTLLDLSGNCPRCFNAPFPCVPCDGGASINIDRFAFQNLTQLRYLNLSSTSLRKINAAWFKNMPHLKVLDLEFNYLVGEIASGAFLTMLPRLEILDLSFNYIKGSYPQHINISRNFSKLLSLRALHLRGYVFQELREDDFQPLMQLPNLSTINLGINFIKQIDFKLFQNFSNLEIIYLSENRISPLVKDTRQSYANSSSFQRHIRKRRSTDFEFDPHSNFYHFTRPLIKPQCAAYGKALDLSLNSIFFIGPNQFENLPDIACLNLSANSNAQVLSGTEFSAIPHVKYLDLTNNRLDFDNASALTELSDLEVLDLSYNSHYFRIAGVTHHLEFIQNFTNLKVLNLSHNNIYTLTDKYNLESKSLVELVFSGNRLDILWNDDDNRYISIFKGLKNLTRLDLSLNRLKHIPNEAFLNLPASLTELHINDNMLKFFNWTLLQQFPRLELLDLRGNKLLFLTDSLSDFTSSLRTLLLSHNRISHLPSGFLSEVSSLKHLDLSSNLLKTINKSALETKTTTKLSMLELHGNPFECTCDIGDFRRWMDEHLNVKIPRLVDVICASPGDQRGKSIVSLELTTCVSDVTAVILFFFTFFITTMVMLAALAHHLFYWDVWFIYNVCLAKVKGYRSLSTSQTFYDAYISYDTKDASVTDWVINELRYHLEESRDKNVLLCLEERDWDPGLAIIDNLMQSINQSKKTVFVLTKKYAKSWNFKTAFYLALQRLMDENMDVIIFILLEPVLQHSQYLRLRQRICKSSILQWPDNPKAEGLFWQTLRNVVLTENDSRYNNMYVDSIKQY
Experiment: TLR7/8-NF-κB reporter assay (HEK-TLR8, SEAP)
Format: cell-based
Conditions: HEK-TLR8 cells, 24 hrs, read-out: EC50 of TLR8 (mean ± SD)
Procedure: Human embryonic kidney (HEK) cells that were stably transfected with human TLR7 or TLR8 and an NF-κB—responsive secreted embryonic alkaline phosphatase (SEAP) gene (HEK-TLR7/8) were purchased from InvivoGen (San Diego, Calif.). The procedure used to measure TLR7 or TLR8 agonist activity was conducted as described by Hood et al. (Hood J. D, et al., Human Vaccines, 2010, 6, 4, 322-335). Briefly, HEK-TLR7/8 cells were stimulated with 3.3 or 30 μM of compound in a 96-well plate in DMEM containing 10% FBS and 0.01% Normocin (InvivoGen) for 24 hrs. Twenty microliters of the supernatant from each well was incubated with Quanti-blue substrate solution (InvivoGen) at 37° C. for 1 hour and absorbance was read at 650 nm using a Synergy plate reader (Biotek, Winooski, Vt.).

Compound: CCCCc1nc2c(N)nc3cc(C(=O)OC)ccc3c2n1CC(C)(C)O [Compound 420, 4-Amino-2-butyl-1-(2-hydroxy-2-methylpropyl)-7-methoxycarbonyl-1H-imidazo[4,5-c]quinoline]
- EC50: 49.6 ± 1.02 µM
